Measured values reported in paper PMC9719519, “Non-classical ferroptosis inhibition by a small molecule targeting PHB2” (Nature Communications, 2022).

Experiments:
Test in all cases: biochemical
Parameters in all cases: Eurofins recombinant human kinase profiling, remaining kinase activity as % of control, 10 uM ATP
Conditions in all cases: ATP 10 uM; read-out: %Ctrl@10 μM
CaMKIIδ(h) = target: T1, CaMKIIδ(h) (Homo sapiens, UniProt Q13557)
T1 construct: gene CAMK2D
Outline: (§1)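 Activity measured in a commercial panel of 401 recombinant human protein kinases run as a kinase profiling service.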

CDK1/cyclinB(h) = CDK1/cyclinB(h) (Homo sapiens, UniProt P06493)
Sequence of CDK1/cyclinB(h) (P06493 whole entry): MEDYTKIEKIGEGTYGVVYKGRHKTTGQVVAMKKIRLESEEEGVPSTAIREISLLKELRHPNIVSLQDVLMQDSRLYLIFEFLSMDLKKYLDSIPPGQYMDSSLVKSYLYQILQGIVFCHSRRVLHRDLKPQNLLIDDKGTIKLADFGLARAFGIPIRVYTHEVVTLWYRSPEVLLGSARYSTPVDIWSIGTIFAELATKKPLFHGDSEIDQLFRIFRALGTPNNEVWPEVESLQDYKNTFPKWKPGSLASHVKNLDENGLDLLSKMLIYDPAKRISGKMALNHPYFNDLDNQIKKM
Sequence of CDK1/cyclinB(h) (P14635 whole entry partner): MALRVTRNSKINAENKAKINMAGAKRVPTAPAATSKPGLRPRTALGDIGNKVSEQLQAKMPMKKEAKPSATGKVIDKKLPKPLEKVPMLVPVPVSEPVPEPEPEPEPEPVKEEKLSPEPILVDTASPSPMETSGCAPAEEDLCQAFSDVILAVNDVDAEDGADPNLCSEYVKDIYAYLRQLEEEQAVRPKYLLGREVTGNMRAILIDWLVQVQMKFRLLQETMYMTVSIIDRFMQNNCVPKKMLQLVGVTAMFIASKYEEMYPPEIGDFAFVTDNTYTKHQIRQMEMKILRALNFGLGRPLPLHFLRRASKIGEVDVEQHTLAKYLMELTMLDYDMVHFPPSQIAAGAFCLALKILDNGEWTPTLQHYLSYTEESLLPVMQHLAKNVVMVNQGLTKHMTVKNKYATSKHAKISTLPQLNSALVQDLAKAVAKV
Outline: as §1

Blk(h) = Blk(h) (Homo sapiens, UniProt P51451)
Sequence of Blk(h) (P51451 whole entry): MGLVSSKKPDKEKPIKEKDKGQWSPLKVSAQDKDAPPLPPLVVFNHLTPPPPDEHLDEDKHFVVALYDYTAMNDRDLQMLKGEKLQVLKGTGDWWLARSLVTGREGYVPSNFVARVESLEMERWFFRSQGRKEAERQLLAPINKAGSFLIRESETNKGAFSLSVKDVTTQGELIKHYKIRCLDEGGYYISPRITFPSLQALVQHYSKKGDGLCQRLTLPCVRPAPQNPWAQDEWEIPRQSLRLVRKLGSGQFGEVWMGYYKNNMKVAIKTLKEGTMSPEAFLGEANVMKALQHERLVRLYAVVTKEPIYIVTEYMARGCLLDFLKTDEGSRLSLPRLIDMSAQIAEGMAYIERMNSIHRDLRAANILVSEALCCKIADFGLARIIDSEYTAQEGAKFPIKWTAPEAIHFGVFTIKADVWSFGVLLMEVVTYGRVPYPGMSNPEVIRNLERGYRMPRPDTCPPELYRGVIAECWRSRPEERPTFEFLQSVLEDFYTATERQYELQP
Outline: as §1

ULK3(h) = ULK3(h) (Homo sapiens, UniProt Q6PHR2)
Outline: as §1

PDGFRα(D842V)(h) = target: T2, PDGFRα(D842V)(h) (Homo sapiens, UniProt P16234, D842V)
T2 construct: gene PDGFRA
T2 sequence (P16234 whole entry D842V): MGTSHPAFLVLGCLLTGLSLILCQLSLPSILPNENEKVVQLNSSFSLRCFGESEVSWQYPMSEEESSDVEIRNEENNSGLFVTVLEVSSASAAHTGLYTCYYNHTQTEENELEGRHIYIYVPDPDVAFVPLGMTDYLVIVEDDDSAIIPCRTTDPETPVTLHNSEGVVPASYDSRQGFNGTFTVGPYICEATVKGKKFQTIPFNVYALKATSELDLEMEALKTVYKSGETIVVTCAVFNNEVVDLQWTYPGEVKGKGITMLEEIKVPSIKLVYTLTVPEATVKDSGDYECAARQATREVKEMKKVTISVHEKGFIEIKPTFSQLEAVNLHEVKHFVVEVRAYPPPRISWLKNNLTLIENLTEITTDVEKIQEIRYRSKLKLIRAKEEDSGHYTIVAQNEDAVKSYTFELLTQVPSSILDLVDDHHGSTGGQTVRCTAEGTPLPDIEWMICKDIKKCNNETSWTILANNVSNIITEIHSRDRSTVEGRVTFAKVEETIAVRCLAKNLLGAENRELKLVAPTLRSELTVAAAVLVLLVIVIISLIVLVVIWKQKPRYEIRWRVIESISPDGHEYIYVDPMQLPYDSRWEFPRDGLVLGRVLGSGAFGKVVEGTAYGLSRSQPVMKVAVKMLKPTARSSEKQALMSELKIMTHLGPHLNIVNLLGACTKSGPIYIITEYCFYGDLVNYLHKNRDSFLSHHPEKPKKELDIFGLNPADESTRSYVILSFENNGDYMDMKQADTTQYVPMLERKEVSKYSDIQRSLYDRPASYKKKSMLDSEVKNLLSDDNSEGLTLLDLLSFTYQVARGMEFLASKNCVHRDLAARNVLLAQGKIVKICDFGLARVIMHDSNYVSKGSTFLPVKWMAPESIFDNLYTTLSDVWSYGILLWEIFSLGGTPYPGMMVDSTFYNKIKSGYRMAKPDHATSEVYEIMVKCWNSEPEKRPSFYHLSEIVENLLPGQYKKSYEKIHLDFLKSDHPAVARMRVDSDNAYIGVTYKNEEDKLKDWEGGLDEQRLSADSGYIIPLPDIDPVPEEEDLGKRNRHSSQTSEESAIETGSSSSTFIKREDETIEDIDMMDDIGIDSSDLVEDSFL
Outline: as §1

TAO2(h) = target: T3, TAO2(h) (Homo sapiens, UniProt Q9UL54)
T3 construct: gene TAOK2
Outline: as §1

CaMKI(h) = target: T4, CaMKI(h) (Homo sapiens, UniProt Q14012)
T4 construct: gene CAMK1
T4 sequence (Q14012 whole entry): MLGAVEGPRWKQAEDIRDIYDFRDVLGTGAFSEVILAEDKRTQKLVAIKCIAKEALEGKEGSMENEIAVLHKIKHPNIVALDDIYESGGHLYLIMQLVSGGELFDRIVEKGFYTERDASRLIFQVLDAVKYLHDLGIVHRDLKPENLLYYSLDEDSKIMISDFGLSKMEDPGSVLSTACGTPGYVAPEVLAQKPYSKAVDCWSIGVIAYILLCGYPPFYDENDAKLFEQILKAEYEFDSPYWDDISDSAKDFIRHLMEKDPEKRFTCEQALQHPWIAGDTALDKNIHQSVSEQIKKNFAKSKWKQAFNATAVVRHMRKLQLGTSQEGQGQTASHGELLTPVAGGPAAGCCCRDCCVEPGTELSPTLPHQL
Outline: as §1

ZIPK(h) = target: T5, ZIPK(h) (Homo sapiens, UniProt O43293)
T5 construct: gene DAPK3
T5 sequence (O43293 whole entry): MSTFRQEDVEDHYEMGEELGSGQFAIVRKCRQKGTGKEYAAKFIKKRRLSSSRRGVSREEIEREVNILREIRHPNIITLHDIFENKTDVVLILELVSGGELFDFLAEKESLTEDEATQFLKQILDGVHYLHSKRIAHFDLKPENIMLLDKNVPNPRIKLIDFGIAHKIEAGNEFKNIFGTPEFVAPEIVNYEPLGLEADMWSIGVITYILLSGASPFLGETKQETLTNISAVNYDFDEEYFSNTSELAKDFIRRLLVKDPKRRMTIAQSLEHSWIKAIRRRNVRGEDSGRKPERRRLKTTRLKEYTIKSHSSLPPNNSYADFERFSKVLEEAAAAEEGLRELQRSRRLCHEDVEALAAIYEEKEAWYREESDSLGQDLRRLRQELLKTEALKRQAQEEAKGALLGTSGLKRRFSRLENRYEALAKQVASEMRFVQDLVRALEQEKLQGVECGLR
Outline: as §1

MKK3(h) = target: T6, MKK3(h) (Homo sapiens, UniProt P46734)
T6 construct: gene MAP2K3
Outline: as §1

CDK7/cyclinH/MAT1(h) = CDK7/cyclinH/MAT1(h) (Homo sapiens, UniProt P50613)
Outline: as §1

SBK1(h) = SBK1(h) (Homo sapiens, UniProt Q52WX2)
Outline: as §1

cKit(V560G)(h) = target: T7, cKit(V560G)(h) (Homo sapiens, UniProt P10721, V560G)
T7 construct: gene KIT
Outline: as §1

MARK3(h) = MARK3(h) (Homo sapiens, UniProt P27448)
Sequence of MARK3(h) (P27448 whole entry): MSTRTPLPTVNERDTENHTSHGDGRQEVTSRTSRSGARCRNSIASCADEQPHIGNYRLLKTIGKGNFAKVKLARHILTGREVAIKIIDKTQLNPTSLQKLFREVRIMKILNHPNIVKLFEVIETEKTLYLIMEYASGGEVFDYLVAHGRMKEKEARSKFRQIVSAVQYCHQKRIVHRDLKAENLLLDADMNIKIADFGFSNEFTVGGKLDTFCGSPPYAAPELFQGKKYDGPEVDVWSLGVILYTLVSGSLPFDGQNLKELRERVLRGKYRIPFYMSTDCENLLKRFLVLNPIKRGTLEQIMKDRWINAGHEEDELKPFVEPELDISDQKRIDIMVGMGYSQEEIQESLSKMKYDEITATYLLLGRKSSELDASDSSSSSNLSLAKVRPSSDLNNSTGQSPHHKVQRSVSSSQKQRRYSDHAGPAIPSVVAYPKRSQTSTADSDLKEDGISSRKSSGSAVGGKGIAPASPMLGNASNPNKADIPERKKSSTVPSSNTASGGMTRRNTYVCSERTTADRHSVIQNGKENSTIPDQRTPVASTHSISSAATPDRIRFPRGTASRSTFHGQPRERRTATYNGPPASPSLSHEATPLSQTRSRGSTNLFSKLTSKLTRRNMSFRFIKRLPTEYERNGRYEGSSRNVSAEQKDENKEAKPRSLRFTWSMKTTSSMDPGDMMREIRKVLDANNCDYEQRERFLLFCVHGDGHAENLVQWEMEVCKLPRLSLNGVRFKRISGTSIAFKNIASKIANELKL
Outline: as §1

CK2α1(h) = target: T8, CK2α1(h) (Homo sapiens, UniProt P68400)
T8 construct: gene CSNK2A1
Outline: as §1

PI3 Kinase (p120)(h) = target: T9, PI3 Kinase (p120)(h) (Homo sapiens, UniProt P48736)
T9 construct: gene PIK3CG
Outline: as §1

NDR2(h) = target: T10, NDR2(h) (Homo sapiens, UniProt Q9Y2H1)
T10 construct: gene STK38L
T10 sequence (Q9Y2H1 whole entry): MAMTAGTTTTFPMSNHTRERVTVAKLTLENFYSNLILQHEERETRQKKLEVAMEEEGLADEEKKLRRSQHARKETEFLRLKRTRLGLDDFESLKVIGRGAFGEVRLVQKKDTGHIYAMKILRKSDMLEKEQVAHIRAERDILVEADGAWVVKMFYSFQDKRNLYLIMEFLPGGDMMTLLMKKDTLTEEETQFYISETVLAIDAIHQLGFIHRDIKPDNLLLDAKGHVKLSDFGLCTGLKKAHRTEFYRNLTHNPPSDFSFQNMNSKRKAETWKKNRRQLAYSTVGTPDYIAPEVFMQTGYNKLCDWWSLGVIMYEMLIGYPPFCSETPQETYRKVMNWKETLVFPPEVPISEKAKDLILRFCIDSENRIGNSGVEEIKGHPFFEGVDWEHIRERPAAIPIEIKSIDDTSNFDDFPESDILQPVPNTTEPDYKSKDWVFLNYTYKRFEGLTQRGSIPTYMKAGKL
Outline: as §1

Met(h) = Met(h) (Homo sapiens, UniProt P08581)
Outline: as §1

Pim-1(h) = target: T11, Pim-1(h) (Homo sapiens, UniProt P11309)
T11 construct: gene PIM1
Outline: as §1

ACK1(h) = target: T12, ACK1(h) (Homo sapiens, UniProt Q07912)
T12 construct: gene TNK2
Outline: as §1

PKCβI(h) = target: T13, PKCβI(h) (Homo sapiens, UniProt P05771)
T13 construct: gene PRKCB; isoform beta I
Outline: as §1

c-RAF(h) = target: T14, c-RAF(h) (Homo sapiens, UniProt P04049)
T14 construct: gene RAF1
Outline: as §1

Abl(T315I)(h) = target: T15, Abl(T315I)(h) (Homo sapiens, UniProt P00519, T315I)
T15 construct: gene ABL1
Outline: as §1

T1 sequence (Q13557 whole entry): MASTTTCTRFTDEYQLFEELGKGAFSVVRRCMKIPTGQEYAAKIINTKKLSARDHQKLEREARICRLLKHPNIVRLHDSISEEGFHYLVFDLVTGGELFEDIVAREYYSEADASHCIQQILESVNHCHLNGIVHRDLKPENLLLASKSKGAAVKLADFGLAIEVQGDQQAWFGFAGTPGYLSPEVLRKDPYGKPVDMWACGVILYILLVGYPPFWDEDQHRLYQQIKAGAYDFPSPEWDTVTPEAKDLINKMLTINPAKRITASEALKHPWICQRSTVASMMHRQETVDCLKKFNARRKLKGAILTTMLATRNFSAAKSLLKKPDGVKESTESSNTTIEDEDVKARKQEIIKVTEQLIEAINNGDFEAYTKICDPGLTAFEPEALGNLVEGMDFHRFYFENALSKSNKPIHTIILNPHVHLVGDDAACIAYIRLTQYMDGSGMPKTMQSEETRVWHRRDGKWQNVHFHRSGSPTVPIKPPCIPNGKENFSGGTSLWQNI

C1=C(c2nc(-c3cnn(C4CCNCC4)c3)cn3cc(-c4ccccc4)nc23)CCOC1 [YL-939]
remaining activity at 10 µM (CaMKIIδ(h)): 68% | remaining activity at 10 µM (CDK1/cyclinB(h)): 92% | remaining activity at 10 µM (Blk(h)): 100% | remaining activity at 10 µM (ULK3(h)): 68% | remaining activity at 10 µM (PDGFRα(D842V)(h)): 113% | remaining activity at 10 µM (TAO2(h)): 90% | remaining activity at 10 µM (CaMKI(h)): 81% | remaining activity at 10 µM (ZIPK(h)): 88% | remaining activity at 10 µM (MKK3(h)): 107% | remaining activity at 10 µM (CDK7/cyclinH/MAT1(h)): 92% | remaining activity at 10 µM (SBK1(h)): 106% | remaining activity at 10 µM (cKit(V560G)(h)): 88% | remaining activity at 10 µM (MARK3(h)): 80% | remaining activity at 10 µM (CK2α1(h)): 103% | remaining activity at 10 µM (PI3 Kinase (p120)(h)): 104% | remaining activity at 10 µM (NDR2(h)): 87% | remaining activity at 10 µM (Met(h)): 54% | remaining activity at 10 µM (Pim-1(h)): 68% | remaining activity at 10 µM (ACK1(h)): 85% | remaining activity at 10 µM (PKCβI(h)): 98% | remaining activity at 10 µM (c-RAF(h)): 76% | remaining activity at 10 µM (Abl(T315I)(h)): 119%
